Entries after “also recorded” stand apart in the source; their conditions may differ. Counter-ions that a name gives are not always drawn.
Tests used:
[1] = Electron microscopy of cardiac tissue (cardiotoxicity); assay type: in vivo, DBA/2 mice; conditions: 15 mg/kg i.v.; day three, five and seven; listed as free Adriamycin, hydrochloride
Protocol: To determine whether the reduced cardiac uptake of Adriamycin in cardiolipin complex encapsulated liposomes prevented cardiotoxicity, electron microscope studies of this organ were performed. DBA/2 mice were injected i.v. with free drug or drug entrapped in cardiolipin complex encapsulated liposomes at a dose of 15 mg/kg. Three mice in each group were sacrificed by cervical dislocation on day three, five and seven and hearts were immediately removed and placed in physiological saline. The apex of the left ventricle with part of the septum was dissected out and minced into one cubic mm blocks and fixed in 2.5% glutaraldehyde buffered with 0.1 M cacodylate, pH 7.2 for two hours at room temperature. The specimens were rinsed in buffer, osmicated in Bennett and Luft's collidin buffered osmium tetroxide, dehydrated in graded ethanols and acetone, and embedded in Epon. For electron microscopy, preliminary 1 μm Epon sections were stained with alkaline toluidine blue and appropriate areas were chosen for ultrathin sectioning, following which random sections were taken on 200 mesh copper grids and stained with uranyl acetate and lead citrate. A JEOL 100 S Electron microscope at an accelerating voltage of 80 KeV was utilized for viewing the sections.

[2] = in vivo; cited from earlier work
[3] = pharmacokinetic studies; cited from earlier work
in vivo = conditions: mouse, iv, 4 mg/kg
Protocol: The physiologic disposition of free Adriamycin and of liposome encapsulated Adriamycin cardiolipin complex was determined in DBA/2 mice weighing 20-25 gm. Mice were injected with free Adriamycin and Adriamycin-cardiolipin complex encapsulated in liposomes via the tail vein at a dose of 4 mg/kg and at 2% body weight. At sequential time points from 5 minutes to 24 hours after drug administration, mice were bled through orbital sinus in hepanized tubes. Plasma was separated immediately and stored at -20° C. Four mice in each treatment group were killed by cervical dislocation and heart, liver, kidney, spleen, lungs and small intestine were rapidly excised, rinsed in 0.9% NaCl and stored at -20° C. until assayed.
Briefly, plasma was extracted with 5 volumes of 0.3 N HCl-50% ethanol and tissues were homogenized with 20 volumes of the acid alcohol. Plasma and tissue homogenates were centrifuged at 15,000 rpm for 10 minutes and the clear supernatant was assayed fluorometrically in a Perkin Elmer equipment at 470 nm excitation and 585 nm emission. Control tissues obtained from mice treated with blank liposomes were read similarly in the fluorometer to correct for any endogenous fluorescence. Fresh Adriamycin standards were prepared in ) 0.3 N HCl--50% ethanol each day to calculate the concentration of Adriamycin in the tissue samples.

[4] = test system: murine P388 ascitic leukemia; assay: Antitumor activity against P388 ascitic leukemia, survival; assay type: in vivo, DBA/2 mice; conditions: 4 mg/kg i.p., 24 hours after 1×10^5 P388 cells i.p.
Protocol: To determine whether encapsulation of Adriamycin cardiolipin complex into liposomes reduced the antitumor activity of the drug, the effectiveness of liposomes-encapsulated Adriamycin cardiolipin complex against the murine P388 ascitic leukemia in DBA/2 mice was studied. Mice were injected i.p with 1×10^5 cells of P388 leukemia. Twenty-four hours after tumor implanation, mice were administered intraperitoneally free Adriamycin or cardiolipin complex-encapsulated liposome at a dose of 4 mg/kg. Control mice received 0.9% NaCl or blank liposomes representing the same concentration of lipids as used to encapsulate Adriamycin cardiolipin complex. All injections were made on 2% body weight basis. Mice were weighed on day of injection, doses of drugs were calculated on body weight basis, and the survival time of mice was recorded in days.
Mice weighing 20 to 25 g were given i.p. injections of 10^5 cells and 24 hours later free or cardiolipin complex-encapsulated liposome Adriamycin was administered.

COc1cccc2c1C(=O)c1c(O)c3c(c(O)c1C2=O)C[C@@](O)(C(=O)CO)C[C@@H]3O[C@H]1C[C@H](N)[C@H](O)[C@H](C)O1 [Adriamycin, doxorubicin hydrochloride]
myocardial toxic damage by electron microscopy [1]: loss and fragmentation of myofilaments with concomitant clearing of organelles and swelling of sarcoplasmic areas; also recorded: degenerative changes with vacuolation of the smooth endoplasmic reticulum and loss of myofibrils; also recorded: Progression of damage could be seen with greater intensity on day 7 | cumulative dose correlated with cumulative myocardial damage [2]: > 500 mg/m^2 | uptake by heart muscle (in words) [3]: taken up avidly and preferentially by heart muscle | Cmax (in vivo): 8300 ng/g | Tmax (in vivo): 30 min | T/C (Treated vs. Control), survival [4]: 132%

COc1cccc2c1C(=O)c1c(O)c3c(c(O)c1C2=O)C[C@@](O)(C(C)=O)C[C@@H]3O[C@H]1C[C@H](N)[C@H](O)[C@H](C)O1 [daunorubicin]
cardiotoxicity (in words) [2]: cardiotoxic effects

— patent US4419348A, “Anthracycline glycoside compositions, their use and preparation” (priority 1981, dated 1983)
